According to patent publication US5792775A (priority 1996, dated 1998):
Read-outs that look alike come from different tables or passages of the source.

How the values were obtained:
[1] = animal models, literature; cited from earlier work
[2] = system: locomotor activity in mice; test: Locomotor (ambulatory) activity; format: in vivo, Swiss Webster mice; conditions: i.p., FIGS. 5-8
From the text: Ambulatory activity of Male Swiss Webster mice (Taconic Farms) were studied in 40 cm^3 clear acrylic chambers. The acrylic chambers were placed inside monitors (Omnitech Electronics, Columbus, Ohio) that were equipped with light sensitive detectors, spaced 2.5 cm apart along two perpendicular walls. Mounted on the opposing walls were infrared light sources that were directed at the detectors. One count of horizontal activity was registered each time the subject interrupted two successive beams. Repetitive interruptions of the same beam due to behaviors, such as head bobbing or grooming, were not counted. Mice were injected and immediately placed in the apparatus for 60 min. Injections were administered i.p. in volumes of 1 mL/ 100 g. Each dose was studied in eight mice, and mice were used only once.
Horizontal activity counts are shown for the first 30 min of the session in which the maximal stimulation of activity was obtained. Each dose-effect curve was analyzed using standard analysis of variance (ANOVA) and post-hoc testing determine significance of effects at individual doses.

[3] = target: serotonin transporter (5HTT) (Rattus norvegicus, UniProt P31652); test: Serotonin transporter binding ([^3 H]citalopram), NOVASCREEN; conditions: for inhibition at 10 µM: read-out: 5HTT (% I@10 μM)
Chain of serotonin transporter (5HTT) (P31652 whole entry): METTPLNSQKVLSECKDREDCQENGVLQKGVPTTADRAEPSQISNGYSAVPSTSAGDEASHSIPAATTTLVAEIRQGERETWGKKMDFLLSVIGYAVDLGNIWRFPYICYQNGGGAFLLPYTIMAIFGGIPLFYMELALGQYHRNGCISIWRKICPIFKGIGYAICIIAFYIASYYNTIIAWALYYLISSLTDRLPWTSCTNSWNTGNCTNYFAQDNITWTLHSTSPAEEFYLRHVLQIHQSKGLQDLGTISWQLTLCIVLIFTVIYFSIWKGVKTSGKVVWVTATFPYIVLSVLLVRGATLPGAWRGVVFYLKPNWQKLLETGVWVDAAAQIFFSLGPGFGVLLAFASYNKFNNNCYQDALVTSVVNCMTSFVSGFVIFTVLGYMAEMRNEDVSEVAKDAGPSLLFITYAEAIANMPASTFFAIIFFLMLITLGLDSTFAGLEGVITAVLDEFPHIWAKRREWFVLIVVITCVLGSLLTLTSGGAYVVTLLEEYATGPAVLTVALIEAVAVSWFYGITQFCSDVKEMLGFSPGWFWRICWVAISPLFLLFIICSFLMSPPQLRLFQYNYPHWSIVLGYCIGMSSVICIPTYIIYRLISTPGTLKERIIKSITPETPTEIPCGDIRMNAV
From the text: (§1) Serotonin (5-HTT), norepinephrine transporter (NET) and muscarinic m1 and m2 receptor binding data were provided by NOVASCREEN.

[4] = system: norepinephrine transporter (NET); test: biochemical; format: binding; conditions: DAT vs. NET
[5] = target: norepinephrine transporter (NET) (Rattus norvegicus, UniProt Q63380); test: biochemical; format: binding; conditions: for inhibition at 10 µM: read-out: NET (% I@10 μM)
Chain of norepinephrine transporter (NET) (Rattus norvegicus, UniProt Q63380) (Q63380 1-617): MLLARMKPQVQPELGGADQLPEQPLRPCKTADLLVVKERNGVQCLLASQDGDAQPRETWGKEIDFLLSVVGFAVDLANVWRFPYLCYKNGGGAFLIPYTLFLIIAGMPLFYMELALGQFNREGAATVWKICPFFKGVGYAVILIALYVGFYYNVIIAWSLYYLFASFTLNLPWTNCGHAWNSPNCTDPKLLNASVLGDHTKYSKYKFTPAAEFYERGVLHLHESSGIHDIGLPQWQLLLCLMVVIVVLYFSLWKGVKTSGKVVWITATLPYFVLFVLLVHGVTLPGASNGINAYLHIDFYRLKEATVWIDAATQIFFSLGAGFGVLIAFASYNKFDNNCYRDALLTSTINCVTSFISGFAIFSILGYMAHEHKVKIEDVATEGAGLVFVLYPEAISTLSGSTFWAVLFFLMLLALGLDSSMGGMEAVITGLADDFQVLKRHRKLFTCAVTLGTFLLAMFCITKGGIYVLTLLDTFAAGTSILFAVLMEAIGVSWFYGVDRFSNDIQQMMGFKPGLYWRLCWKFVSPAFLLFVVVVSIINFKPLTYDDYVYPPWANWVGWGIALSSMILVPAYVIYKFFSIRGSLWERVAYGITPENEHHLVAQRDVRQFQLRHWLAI

muscarinic m2 receptors = target: T1, muscarinic m2 receptors (Rattus norvegicus, UniProt P10980); test: Muscarinic m2 receptor binding ([^3 H]AFDX 384), NOVASCREEN; conditions: Table III
T1 sequence (P10980 1-466): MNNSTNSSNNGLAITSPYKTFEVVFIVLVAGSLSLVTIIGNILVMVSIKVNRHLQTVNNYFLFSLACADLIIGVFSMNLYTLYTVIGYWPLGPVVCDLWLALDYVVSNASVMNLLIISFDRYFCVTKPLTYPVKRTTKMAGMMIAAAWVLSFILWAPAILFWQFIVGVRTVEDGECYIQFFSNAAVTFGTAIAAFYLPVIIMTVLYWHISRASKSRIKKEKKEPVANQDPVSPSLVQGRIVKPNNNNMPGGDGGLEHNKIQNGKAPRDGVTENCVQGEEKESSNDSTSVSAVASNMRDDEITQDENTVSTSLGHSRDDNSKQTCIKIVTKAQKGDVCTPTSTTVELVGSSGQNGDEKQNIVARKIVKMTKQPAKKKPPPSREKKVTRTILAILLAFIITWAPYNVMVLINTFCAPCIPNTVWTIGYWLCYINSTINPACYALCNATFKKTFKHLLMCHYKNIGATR
From the text: as §1

[6] = target: T2, dopamine transporter (DAT) (Rattus norvegicus, UniProt P23977); test: Displacement of [^3 H]WIN 35,428 binding (Dopamine Transporter Binding Assay); conditions: Table III; displacement of [^3 H]WIN 35,428, rat caudate putamen; % error in parentheses
T2 construct: brains removed to an ice-cooled dish for dissection of the caudate putamen; from tissue; host or cells: rat caudate putamen, washed membranes of male Sprague-Dawley rats (Taconic)
T2 sequence (P23977 whole entry): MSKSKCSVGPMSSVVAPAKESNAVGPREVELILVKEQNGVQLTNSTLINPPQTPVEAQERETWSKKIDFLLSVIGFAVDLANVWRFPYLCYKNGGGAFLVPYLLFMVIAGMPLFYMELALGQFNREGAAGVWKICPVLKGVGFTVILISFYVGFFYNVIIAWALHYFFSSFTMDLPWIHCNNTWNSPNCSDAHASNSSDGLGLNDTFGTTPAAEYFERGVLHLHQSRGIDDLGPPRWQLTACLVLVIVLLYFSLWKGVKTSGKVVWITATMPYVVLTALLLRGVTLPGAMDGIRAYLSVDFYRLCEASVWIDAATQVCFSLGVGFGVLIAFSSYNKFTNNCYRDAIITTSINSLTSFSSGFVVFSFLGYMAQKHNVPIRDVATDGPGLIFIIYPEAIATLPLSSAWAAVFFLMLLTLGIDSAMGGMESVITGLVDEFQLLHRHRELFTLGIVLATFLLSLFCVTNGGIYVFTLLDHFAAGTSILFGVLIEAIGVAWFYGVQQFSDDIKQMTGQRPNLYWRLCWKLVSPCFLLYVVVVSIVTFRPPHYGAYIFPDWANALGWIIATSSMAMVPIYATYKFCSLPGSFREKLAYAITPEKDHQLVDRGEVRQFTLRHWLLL

[7] = system: dopamine uptake, rat caudate putamen; format: biochemical; conditions: Table V; rat caudate putamen; read-out: [^3 H]DA Uptake Inhibition IC50
muscarinic m1 receptors = target: T3, muscarinic m1 receptors (Rattus norvegicus, UniProt P08482); test: biochemical; format: binding; conditions: Table III; read-out: m1, Ki
T3 sequence (P08482 1-460): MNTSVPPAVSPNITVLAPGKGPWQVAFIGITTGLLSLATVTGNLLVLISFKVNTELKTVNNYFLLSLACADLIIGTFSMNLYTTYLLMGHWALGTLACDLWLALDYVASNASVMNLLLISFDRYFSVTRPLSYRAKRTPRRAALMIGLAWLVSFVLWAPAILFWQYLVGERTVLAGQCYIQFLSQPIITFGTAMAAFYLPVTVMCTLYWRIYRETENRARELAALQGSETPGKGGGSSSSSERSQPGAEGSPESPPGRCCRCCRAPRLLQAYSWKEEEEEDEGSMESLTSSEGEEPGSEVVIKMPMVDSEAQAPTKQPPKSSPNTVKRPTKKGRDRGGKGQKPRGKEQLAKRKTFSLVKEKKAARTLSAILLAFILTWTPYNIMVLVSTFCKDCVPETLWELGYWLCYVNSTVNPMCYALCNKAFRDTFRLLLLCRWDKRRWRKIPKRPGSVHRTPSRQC

[8] = target: T2, dopamine transporter (DAT); conditions: read-out: DAT Ki, nM (% error); cited from earlier work

Structure (SMILES) | CNS stimulatory activity [1] | stimulation of locomotor activity [2] | Ki ([3]; Table III, footnote d, read-out: 5HTT Ki value in nM (bracketed)) [nM] | inhibition at 10 µM [3] [%] | potency at dopamine transporter as compared to norepinephrine transporter [4] [fold] | Ki [5] [nM] | inhibition at 10 µM [5] [%] | Ki ([5]; read-out: NET, Ki, Table IV) [nM] | Ki (muscarinic m2 receptors) [nM] | Ki [6] [nM] | IC50 [7] [nM] | Ki (muscarinic m1 receptors) [nM] | Ki [8] [nM]
CN1[C@@H]2CC[C@H]1C[C@@H](OC(c1ccccc1)c1ccccc1)C2 [Compound 2, 3α-(diphenylmethoxy)-1αH,5αH-tropane] | exhibits CNS stimulatory activity in animal models | do not produce locomotor stimulant activity | – | – | – | – | – | – | – | – | – | – | –
CN1[C@@H]2CC[C@H]1C[C@@H](OC(c1ccc(F)cc1)c1ccc(F)cc1)C2 [Compound 7c, 4',4"-difluoro-3α-(diphenylmethoxy)tropane] | – | – | > 2440 | 62 | > 700 | > 8500 | 30 | > 8500 | – | – | – | – | –
CCc1ccc(C(O[C@H]2C[C@H]3CC[C@@H](C2)N3C)c2ccccc2)cc1 (stereo partly drawn) [Compound 7q] | – | – | – | 42.7 | – | – | 32.7 | – | 703 | 520 | 984 | 12.6 | –
CN1[C@@H]2CC[C@H]1C[C@@H](OC(c1ccccc1)c1ccc(O)cc1)C2 (stereo partly drawn) [Compound 7r, 3α-4'-Hydroxy-(diphenylmethoxy)tropane] | – | – | – | 23.3 | – | – | 27.3 | – | 17.7 | 297 | 677 | 2.1 | –
CN1[C@@H]2CC[C@H]1C[C@H](OC(c1ccccc1)c1ccc(Cl)cc1)C2 (stereo partly drawn) [Compound 10, 3β-4'-Chloro-(diphenylmethoxy)tropane] | – | – | – | 37.2 | – | – | 27.9 | – | – | – | 3520 | – | 854
